Among the data in the NIST ThermoML archive (doi:10.1016/j.jct.2015.08.027) are refractive index and mass density values, retold here.

Data set [1] is described as follows: refractive index (Na D-line) (dimensionless); wn = mass fraction of the nth substance listed. The settings on record: 81.5 kPa, Liquid, Standard Abbe refractometry.
A short description of data set [2]: refractive index (Na D-line) (dimensionless). The conditions noted are these: 101.33 kPa, Liquid, Standard Abbe refractometry.
For data set [3] the following is noted: 101.33 kPa, Liquid, Vibrating tube method.

SMILES strings stand for the structures. Numbers after ± are expanded uncertainties.

Regarding `CCCCCCn1cc[n+](C)c1.F[P-](F)(F)(F)(F)F` [1-hexyl-3-methylimidazolium hexafluorophosphate] + O, the refractive index in data set [1] (293.2 K, w2 = 0.0142) worked out at 1.4164 ± 0.001; in data set [1] (293.2 K, w2 = 0.993), 1.3334 ± 0.00077; in data set [1] (298.2 K, w2 = 0.0161), 1.41525 ± 0.00099; in data set [1] (298.2 K, w2 = 0.9924), 1.3332 ± 0.0008; in data set [1] (303.2 K, w2 = 0.0164), 1.4135 ± 0.00098; in data set [1] (303.2 K, w2 = 0.9914), 1.33345 ± 0.00086.

In the case of `O` [water], the refractive index in data set [2] (293.2 K) was 1.33305 ± 0.00049; in data set [2] (298.2 K), 1.3325 ± 0.00049; in data set [2] (303.2 K), 1.33195 ± 0.00049.

For the compound `CC(C)=O` [acetone], the values for the mass density in data set [3] (293.2 K), in data set [3] (298.2 K) and in data set [3] (303.2 K) were 790.66 ± 1.6 kg/m3, 784.4 ± 1.6 kg/m3 and 778.7 ± 1.6 kg/m3, respectively. In addition, the values for the refractive index in data set [2] (293.2 K), in data set [2] (298.2 K) and in data set [2] (303.2 K) were 1.3588 ± 0.00051, 1.35575 ± 0.00051 and 1.35265 ± 0.00051, respectively.

Take `CCCCCCn1cc[n+](C)c1.F[P-](F)(F)(F)(F)F` [1-hexyl-3-methylimidazolium hexafluorophosphate]: the mass density in data set [3] (293.2 K) was 1294.91 ± 2.6 kg/m3; in data set [3] (298.2 K), 1290.88 ± 2.6 kg/m3; in data set [3] (303.2 K), 1286.85 ± 2.6 kg/m3. For the same compound, the results for the refractive index in data set [2] (293.2 K), in data set [2] (298.2 K) and in data set [2] (303.2 K) were 1.4176 ± 0.00053, 1.4164 ± 0.00053 and 1.41515 ± 0.00053, respectively.

Broadly, the refractive index is the speed of light in vacuum divided by its phase velocity in the sample. In general, mass density refers to mass per unit of volume.
